According to paper PMC7460603 (International Journal of Molecular Sciences, 2020):
Read-outs that look alike come from different tables or passages of the source.

Tests used:
[1] = target: T1, electric eel acetylcholinesterase (eeAChE) (Electrophorus electricus, UniProt O42275); experiment: biochemical; assay type: biochemical; design: purchased Sigma, St. Louis, MO, USA; conditions: for Ki: three substrate concentrations (0.125, 0.25, 0.5 mM)
Protocol: (§1) Cholinesterase activities were measured by the Ellman method adapted for microtiter plates, as described in Ristovski et al.. Stock solutions of the prepared ruthenium compounds (1 mg/mL) or neostigmine bromide (Sigma-Aldrich, St. Louis, MO, USA) as a positive control were prepared in 100% ethanol and progressively diluted in 100 mM potassium phosphate buffer (pH 7.4) to a final volume of 50 µL. Then, 1 mM acetylthiocholine chloride and 0.5 mM 5,5′-dithiobis-2-nitrobenzoic acid were dissolved in the same buffer and added to the wells of the microtiter plates to the final volume of 150 μL. Electric eel acetylcholinesterase (eeAChE) or horse serum BChE (hsBuChE) (both Sigma, St. Louis, MO, USA) were dissolved in the same buffer to 0.0075 U/mL. Fifty μL of each of the cholinesterases was added to start the reactions, which were followed spectrophotometrically at 405 nm and 25 °C for 5 min using a kinetic microplate reader (Dynex Technologies, Chantilly, VA, USA). Blank reactions without the inhibitors were run in the presence of the appropriate dilution of ethanol. Every measurement was repeated at least three times. For determination of the inhibitory constants, the kinetics were monitored using three different final substrate concentrations (0.125, 0.25, 0.5 mM).

[2] = target: T2, horse serum butyrylcholinesterase (hsBuChE) (Equus caballus, UniProt P81908); experiment: biochemical; assay type: biochemical; design: purchased Sigma, St. Louis, MO, USA; host or cells: horse serum; conditions: for Ki: three substrate concentrations (0.125, 0.25, 0.5 mM)
Protocol: as §1

[3] = phosphate buffer solution, cultural media RPMI and FP-RPMI, plasma; cited from earlier work
[4] = ESI-MS stability in solution; conditions: positive ion mode, direct infusion; immediately before measurement and after three days
[5] = tested on: HUVEC cells; conditions: non-cancer cells; cited from earlier work
[6] = target: T1, electric eel acetylcholinesterase (eeAChE); conditions: read-out: eeAChE IC50; previously reported; cited from earlier work
[7] = target: T2, horse serum butyrylcholinesterase (hsBuChE); conditions: read-out: hsBuChE IC50; previously reported; cited from earlier work
[8] = tested on: glutathione-S-transferase; conditions: cited from earlier work
[9] = tested on: human AChE (hAChE); conditions: read-out: hAChE IC50; previously reported; cited from earlier work
[10] = tested on: immunoglobulins G; conditions: human serum; cited from earlier work
[11] = tested on: neuromuscular transition; conditions: at pharmaceutically relevant concentrations; cited from earlier work
[12] = tested on: NHEK-1 cells; conditions: non-cancer cells; cited from earlier work
[13] = tested on: human serum albumin; conditions: cited from earlier work
[14] = cited from earlier work
[15] = 1H NMR stability in aqueous media
Protocol: All assays were carried out immediately after the solution preparation.

[16] = concentration inducing 50% inhibition of enzyme activity, mean ± SEM of three independent measurements, / = no activity, read-out: eeAChE IC50
[17] = concentration inducing 50% inhibition of enzyme activity, mean ± SEM of three independent measurements, / = no activity, read-out: hsBuChE IC50
[18] = read-out: eeAChE IC50, concentration inducing 50% inhibition of enzyme activity, mean ± SEM of three independent measurements, / = no activity
[19] = read-out: hsBuChE IC50, concentration inducing 50% inhibition of enzyme activity, mean ± SEM of three independent measurements, / = no activity

T1 sequence (O42275 24-633): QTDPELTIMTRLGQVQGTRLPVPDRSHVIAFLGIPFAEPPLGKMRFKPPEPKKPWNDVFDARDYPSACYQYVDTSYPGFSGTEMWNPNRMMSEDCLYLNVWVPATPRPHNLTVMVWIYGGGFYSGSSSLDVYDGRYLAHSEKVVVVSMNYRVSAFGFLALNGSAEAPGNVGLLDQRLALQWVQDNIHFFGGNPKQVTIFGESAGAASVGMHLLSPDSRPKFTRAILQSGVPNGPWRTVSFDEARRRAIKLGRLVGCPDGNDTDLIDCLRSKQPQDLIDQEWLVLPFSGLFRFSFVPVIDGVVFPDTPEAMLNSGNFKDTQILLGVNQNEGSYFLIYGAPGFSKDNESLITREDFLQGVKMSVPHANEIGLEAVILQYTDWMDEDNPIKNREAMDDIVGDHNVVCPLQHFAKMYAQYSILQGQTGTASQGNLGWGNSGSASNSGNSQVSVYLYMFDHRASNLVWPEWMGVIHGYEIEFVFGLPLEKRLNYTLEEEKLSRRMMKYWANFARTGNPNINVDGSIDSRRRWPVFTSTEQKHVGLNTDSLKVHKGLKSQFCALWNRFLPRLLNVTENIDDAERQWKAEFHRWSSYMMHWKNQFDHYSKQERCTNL
T2 sequence (P81908 whole entry): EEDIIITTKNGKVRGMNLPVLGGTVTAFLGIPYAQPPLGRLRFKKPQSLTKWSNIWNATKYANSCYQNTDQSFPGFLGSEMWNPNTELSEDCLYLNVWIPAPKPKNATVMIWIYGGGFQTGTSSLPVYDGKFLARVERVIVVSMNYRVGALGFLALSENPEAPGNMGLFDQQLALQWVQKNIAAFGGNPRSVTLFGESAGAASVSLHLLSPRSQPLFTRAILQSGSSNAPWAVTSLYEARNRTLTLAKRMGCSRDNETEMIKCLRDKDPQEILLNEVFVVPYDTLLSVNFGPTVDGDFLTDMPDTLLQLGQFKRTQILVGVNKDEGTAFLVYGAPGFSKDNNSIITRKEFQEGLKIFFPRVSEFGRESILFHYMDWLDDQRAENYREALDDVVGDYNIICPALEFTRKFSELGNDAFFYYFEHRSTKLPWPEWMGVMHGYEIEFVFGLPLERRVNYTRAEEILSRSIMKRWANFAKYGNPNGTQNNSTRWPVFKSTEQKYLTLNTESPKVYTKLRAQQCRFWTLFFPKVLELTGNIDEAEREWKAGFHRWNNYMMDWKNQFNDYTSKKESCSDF

Compound | IC50 [1, 16] [µM] | Ki [1] [µM] | IC50 [2, 17] [µM] | Ki [2] [µM] | also measured
Cc1ccc(C(C)C)cc1.[Cl][Ru+].[O-]n1ccc2ccccc2c1=S [Compound 1f, [(η^6-p-Cymene)Ru(2-hydroxyisoquinoline-1-(2H)-thionato)Cl]] | 8.1 ± 0.5 | 12.3 | 1.3 ± 0.1 | 0.4 | –
On1ccc2ccccc2c1=S [f, 2-Hydroxyisoquinoline-1-(2H)-thione] | – | – | – | – | IC50 [1, 18]: > 100 µM; IC50 [2, 19]: > 100 µM
Cc1ccn(O)c(=S)c1 [c] | – | – | – | – | IC50 ([1]; read-out: eeAChE IC50): > 100 µM; IC50 ([2]; read-out: hsBuChE IC50): > 100 µM
On1cc2ccccc2cc1=S [h, 2-Hydroxyisoquinoline-3-(2H)-thione] | > 100 | – | 53 | – | activity against eeAChE (in words) [1]: poorly active; activity against hsBuChE (in words) [2]: poorly active
[(η^6-p-Cymene)Ru(2-hydroxyisoquinoline-3-(2H)-thionato)Cl] [Compound 1h] | 14.3 ± 2 | 20.1 | 0.7 ± 0.1 | 0.2 | –
[(η^6-p-Cymene)Ru(1-hydroxyquinoline-2-(1H)-thionato)Cl] [Compound 1g] | 4.9 ± 0.1 | 5.6 | 0.2 ± 0.05 | 0.2 | –
Cc1ccc(C(C)C)cc1.Cc1cccn([O-])c1=S.[Cl-].[Ru+2] [Compound 1b] | 10.5 ± 0.7 | 9.7 | 1.2 ± 0.02 | 0.4 | stability in aqueous media (UV-Vis) [3]: stable; stability in aqueous solution (ESI-MS, [M − Cl]+ ion) [4]: same spectrum
Cc1ccc(C(C)C)cc1.[Cl][Ru+].[O-]n1ccccc1=S [Compound 1a] | 7.8 ± 0.8 | 15.1 | 2.3 ± 0.1 | 0.5 | cytotoxicity against HUVEC cells [5]: no cytotoxicity; IC50 [6]: 5.01 µM; IC50 [7]: 7.52 µM; inhibition of glutathione-S-transferase [8]: inhibited; IC50 [9]: 25.1 µM; fraction interacting with immunoglobulins G [10]: 5%; physiological response on the neuromuscular transition [11]: did not express any unwanted physiological response; cytotoxicity against NHEK-1 cells [12]: no cytotoxicity; fraction interacting with human serum albumin [13]: 70%; fraction remaining unbound [13]: 25%; stability in D2O solution containing NaCl [14]: confirmed the stability; stability in DMSO-d6/D2O (1H NMR) [14]: stable
Cc1ccc(C(C)C)cc1.Cc1ccn([O-])c(=S)c1.[Cl-].[Ru+2] [Compound 1c] | 9.5 ± 1.1 | 8.5 | 2.7 ± 0.8 | 0.9 | –
Cc1cccc(=S)n1O [e] | – | – | – | – | IC50 [1, 18]: > 100 µM; IC50 [2]: > 100 µM
On1ccccc1=S [a, 1-hydroxypyridine-2(1H)-thione] | – | – | – | – | IC50 [1, 18]: > 100 µM; IC50 [2, 19]: > 100 µM
On1c(=S)ccc2ccccc21 [g, 1-Hydroxyquinoline-2-(1H)-thione] | > 100 | – | > 100 | – | –
Cc1ccc(=S)n([O-])c1.Cc1ccc(C(C)C)cc1.[Cl-].[Ru+2] [Compound 1d] | 6.6 ± 0.5 | 9.7 | 1.9 ± 0.4 | 0.4 | –
Cc1cccn(O)c1=S [b] | – | – | – | – | IC50 [1, 18]: > 100 µM; IC50 [2, 19]: > 100 µM
Cc1ccc(=S)n(O)c1 [d] | – | – | – | – | IC50 [1, 18]: > 100 µM; IC50 [2, 19]: > 100 µM
Cc1ccc(C(C)C)cc1.Cc1cccc(=S)n1[O-].[Cl-].[Ru+2] [Compound 1e] | 5.1 ± 0.4 | 4.9 | 0.7 ± 0.1 | 3.4 | stability under enzymatic assay conditions (1H NMR) ([15]; 6.25% EtOH-d6/D2O, 80.2 mM K2HPO4 and 19.8 mM KH2PO4, immediately and after one hour): remain stable; stability in D2O containing 140 mM NaCl (1H NMR) ([15]; after one day): negligible changes; stability in D2O (1H NMR) ([15]; immediately and after three days): remain the main present species
CN(C)C(=O)Oc1cccc([N+](C)(C)C)c1 [Neostigmine bromide, reference compound] | – | – | – | – | IC50 [1]: 4.3 ± 0.8 µM; IC50 [2]: 37.3 ± 4.2 µM
